Columns and labels:
[1] = Cytotoxicity against HEL cells assessed as alteration in cell morphology; type: cell-based; details: human
[2] = Cytotoxicity against HEL cells; type: cell-based; details: human
Human alphaherpesvirus 3 [3] = experiment: Antiviral activity against TK+ VZV YS in HEL cells after 5 days; type: functional, organism-based; details: Human alphaherpesvirus 3, YS, 120 h
[4] = Inhibition of VZV-TK catalyzed dThd phosphorylation; parameters: species or system Human alphaherpesvirus 3
Human alphaherpesvirus 3 [5] = experiment: Antiviral activity against TK+ VZV OKA in HEL cells after 5 days; type: functional, organism-based; details: Human alphaherpesvirus 3, OKA, 120 h
Human alphaherpesvirus 3 [6] = experiment: Antiviral activity against TK- VZV 07 in HEL cells after 5 days; type: functional, organism-based; details: Human alphaherpesvirus 3, 07, HEL, 120 h
Human alphaherpesvirus 3 [7] = experiment: Antiviral activity against TK- VZV YS in HEL cells after 5 days; type: functional, organism-based; details: Human alphaherpesvirus 3, YS, 120 h

Compound | MCC [1] [µM] | CC50 [2] [µM] | EC50 (Human alphaherpesvirus 3 [3]) [nM] | IC50 [4] [µM] | EC50 (Human alphaherpesvirus 3 [5]) [nM] | EC50 (Human alphaherpesvirus 3 [6]) [µM] | EC50 (Human alphaherpesvirus 3 [7]) [µM]
CCCCCc1ccc(-c2cc3cn([C@@H]4C[C@H](CO)[C@@H](O)C4)c(=O)nc3o2)cc1 | > 50 | > 50 | 280 | 44 | 490 | > 50 | –
Nc1nc2c(ncn2COCCO)c(=O)[nH]1 [ACYCLOVIR] | > 200 | > 200 | – | – | – | – | –
O=c1[nH]c(=O)n([C@H]2C[C@H](O)[C@@H](CO)O2)cc1/C=C/Br [BRIVUDINE] | > 200 | > 200 | 5 | 1.3 | 5 | > 200 | > 200
CCCCCc1ccc(-c2cc3cn([C@H]4C[C@H](O)[C@@H](CO)O4)c(=O)nc3o2)cc1 [CF1743] | > 20 | – | – | – | – | – | –

Reference: ChEMBL document CHEMBL1138364 (J Med Chem, 2007)
